The target in assay [1] is FGFR1 (SEQ ID NO: 1, amino acids 458-765) (Homo sapiens (Human), UniProt P11362). Put plainly: LC/MS FGFR1 kobs assay (covalent protein modification). It counts as binding. The following applies: 500 nM FGFR1, 3 μM compound. In short, it runs like this:
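Covalent labeling of FGFR1 kinase domain (aa 458-765) tracked over time by intact-protein LC/MS after formic acid quench. kobs derived by fitting DMSO-normalized percent unmodified FGFR1 to an exponential decay model.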

In assay [2] the target is dephosphorylated FGFR1 (SEQ ID NO: 1, amino acids 458 to 765) (Homo sapiens (Human), UniProt P11362). As to the kind of experiment: FGFR enzyme binding assay (HTRF tracer displacement), FGFR1. The following applies: 5 nM dephosphorylated FGFR1, average of multiple determinations if made. In short, it runs like this:
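Kinase and tracer were incubated with compound for 60 minutes at 22° C. Tracer displacement was then measured by HTRF, and results were expressed as POC with 1 μM control inhibitor defining full displacement.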

In assay [3] the target is HEK-293 cells transfected with dox-inducible human wild type FGFR3 (Homo sapiens (Human), UniProt P22607). As to the kind of experiment: FGFR3 pERK cell assay. The settings on record: HEK-293 dox-inducible FGFR3, 1 hour compound, 100 ng/ml FGF-acidic; maximum concentration 5 μM. It counts as cell-based. A digest of the protocol: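 Doxycycline-induced cells preincubated 1 h at 37 °C with compound (1:3 dilutions, top 5 μM final), then stimulated 5 min with 100 ng/ml FGF-acidic. Lysate phospho-ERK1/2 measured by MSD sandwich assay; IC50 at 50 POC from 4-parameter fit, normalised to no-compound and control-compound wells.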
Sequence of HEK-293 cells transfected with dox-inducible human wild type FGFR3 (P22607 23-806): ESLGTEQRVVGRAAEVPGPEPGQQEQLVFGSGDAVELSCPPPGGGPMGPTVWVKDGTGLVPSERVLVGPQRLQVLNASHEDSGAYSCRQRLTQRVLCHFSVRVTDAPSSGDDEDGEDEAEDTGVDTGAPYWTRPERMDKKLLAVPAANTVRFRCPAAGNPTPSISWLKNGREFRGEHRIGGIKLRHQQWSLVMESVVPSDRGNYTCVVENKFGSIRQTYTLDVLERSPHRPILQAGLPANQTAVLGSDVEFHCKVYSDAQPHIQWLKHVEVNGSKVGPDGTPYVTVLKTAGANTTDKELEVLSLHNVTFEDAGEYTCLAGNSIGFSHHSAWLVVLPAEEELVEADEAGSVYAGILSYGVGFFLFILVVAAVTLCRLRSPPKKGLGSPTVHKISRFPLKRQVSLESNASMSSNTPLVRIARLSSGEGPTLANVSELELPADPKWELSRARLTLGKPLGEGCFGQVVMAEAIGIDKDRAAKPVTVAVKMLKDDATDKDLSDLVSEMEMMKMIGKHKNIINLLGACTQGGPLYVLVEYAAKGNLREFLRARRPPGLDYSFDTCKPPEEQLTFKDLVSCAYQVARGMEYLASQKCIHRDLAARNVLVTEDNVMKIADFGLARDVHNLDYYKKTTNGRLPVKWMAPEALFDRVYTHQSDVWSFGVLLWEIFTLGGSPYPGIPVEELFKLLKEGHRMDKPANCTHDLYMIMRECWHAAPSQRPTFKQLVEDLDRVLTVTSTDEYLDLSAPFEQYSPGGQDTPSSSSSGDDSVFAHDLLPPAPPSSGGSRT

Assay [4] concerns the target recombinant human FGFR2 cytoplasmic domain (amino acids 403-822) (Homo sapiens (Human), UniProt P21802). Put plainly: FGFR2 enzyme activity assay (LanthaScreen TR-FRET). The class given is biochemical. The settings on record: 15 μM ATP, 20 min incubation at 22° C., average of multiple determinations if made, read-out: FGFR2 Enz FRET IC50. A digest of the protocol:
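Substrate phosphorylation was read by TR-FRET using Eu-PY20 antibody (60 min, 22 °C) after a 20 min, 22 °C reaction. The reaction used 15 μM ATP, 100 nM fluorescent poly-GT peptide and His-tagged FGFR2 403-822 ([…]) at pH 7.5 with 2% DMSO.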

For assay [5], the target named is HEK-293 cells transfected with dox-inducible human wild type FGFR1 (Homo sapiens (Human), UniProt P11362). As to the kind of experiment: FGFR1 pERK cell assay. It counts as cell-based. The settings on record: HEK-293 dox-inducible FGFR1, 1 hour compound, 100 ng/ml FGF-acidic; maximum concentration 5 μM. A digest of the protocol: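 In HEK-293 cells with dox-induced human wild-type FGFR1, compounds (1:3 dilutions, top 5 μM final) were applied 1 h at 37°C before 5 min stimulation with 100 ng/ml FGF-acidic. Phospho-ERK1/2 measured by MSD sandwich immunoassay; IC50 from 4-parameter fit of POC versus vehicle and control compound.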
Sequence of HEK-293 cells transfected with dox-inducible human wild type FGFR1 (P11362 22-822): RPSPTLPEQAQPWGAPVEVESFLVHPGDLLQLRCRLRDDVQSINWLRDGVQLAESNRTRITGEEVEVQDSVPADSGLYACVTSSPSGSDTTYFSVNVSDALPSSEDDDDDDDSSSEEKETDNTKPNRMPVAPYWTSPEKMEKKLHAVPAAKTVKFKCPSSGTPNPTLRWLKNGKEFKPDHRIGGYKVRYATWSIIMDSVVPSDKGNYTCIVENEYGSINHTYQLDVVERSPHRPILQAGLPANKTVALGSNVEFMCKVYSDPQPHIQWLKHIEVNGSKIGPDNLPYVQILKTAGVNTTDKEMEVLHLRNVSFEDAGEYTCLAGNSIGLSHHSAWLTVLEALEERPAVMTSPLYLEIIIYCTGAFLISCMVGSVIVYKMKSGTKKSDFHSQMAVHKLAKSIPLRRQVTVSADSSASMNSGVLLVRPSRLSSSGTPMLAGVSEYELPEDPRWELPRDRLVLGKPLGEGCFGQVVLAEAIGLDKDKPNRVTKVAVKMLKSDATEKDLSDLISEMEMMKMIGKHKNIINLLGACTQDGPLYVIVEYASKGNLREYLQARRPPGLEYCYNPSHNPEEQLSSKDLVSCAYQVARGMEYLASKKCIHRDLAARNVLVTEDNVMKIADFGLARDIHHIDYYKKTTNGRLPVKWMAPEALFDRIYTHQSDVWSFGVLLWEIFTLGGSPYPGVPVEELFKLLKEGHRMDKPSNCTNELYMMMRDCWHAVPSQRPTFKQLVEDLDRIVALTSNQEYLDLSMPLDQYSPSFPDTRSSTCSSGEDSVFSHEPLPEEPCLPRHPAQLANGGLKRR

Experimental findings from patent publication US12180207B2 (ARRAY BIOPHARMA INC., priority 2018, dated 2024) are described below.

By IC50 is commonly meant the concentration that gives 50% inhibition.

Sequence of recombinant human FGFR2 cytoplasmic domain (amino acids 403-822) (P21802 402-821): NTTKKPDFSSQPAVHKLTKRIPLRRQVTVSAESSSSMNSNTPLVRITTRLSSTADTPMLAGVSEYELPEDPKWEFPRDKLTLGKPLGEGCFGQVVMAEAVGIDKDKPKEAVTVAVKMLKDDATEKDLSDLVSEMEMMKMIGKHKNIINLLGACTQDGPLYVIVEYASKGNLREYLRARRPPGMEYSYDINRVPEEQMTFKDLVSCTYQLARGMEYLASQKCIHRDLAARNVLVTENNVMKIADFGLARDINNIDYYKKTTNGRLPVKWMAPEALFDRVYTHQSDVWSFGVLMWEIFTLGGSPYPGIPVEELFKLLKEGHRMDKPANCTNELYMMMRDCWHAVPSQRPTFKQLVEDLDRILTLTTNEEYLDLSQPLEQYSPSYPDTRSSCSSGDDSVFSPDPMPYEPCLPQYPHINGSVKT
Sequence of FGFR1 (SEQ ID NO: 1, amino acids 458-765) (P11362 458-765): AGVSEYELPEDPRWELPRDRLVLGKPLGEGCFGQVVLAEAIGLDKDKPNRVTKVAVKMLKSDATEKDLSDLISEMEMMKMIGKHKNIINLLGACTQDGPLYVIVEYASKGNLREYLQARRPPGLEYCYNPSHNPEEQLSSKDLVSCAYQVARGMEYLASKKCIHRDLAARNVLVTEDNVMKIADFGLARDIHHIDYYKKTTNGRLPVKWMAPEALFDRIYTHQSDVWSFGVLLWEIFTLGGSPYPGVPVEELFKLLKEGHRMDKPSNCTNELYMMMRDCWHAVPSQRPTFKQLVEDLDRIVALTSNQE
Sequence of dephosphorylated FGFR1 (SEQ ID NO: 1, amino acids 458 to 765) (P11362 458-765): as above

On to `COc1cc(-c2cnn(C3CCN(C(=O)C4(F)CN(C(=O)/C=C/CN(C)C)C4)CC3)c2C)cn2ncc(C#N)c12` [Example 153, (E)-6-(1-(1-(1-(4-(dimethylamino)but-2-enoyl)-3-fluoroazetidine-3-carbonyl)piperidin-4-yl)-5-methyl-1H-pyrazol-4-yl)-4-methoxypyrazolo [1,5-a]pyridine-3-carbonitrile], for which the “FGFR1 Enz kobs” value in assay [1] turned out to be 0.00975 min⁻¹. Besides, the half-maximal inhibitory concentration (IC50) in assay [2] was 210 nM; in assay [3], 25 nM; in assay [4] it was 4 nM; in assay [5], 2 nM.

Regarding `C=CC(=O)N1CC(C(=O)N2CCC3(C2)CN(c2ccc(-c4cc(OC)c5c(C#N)cnn5c4)cn2)C3)C1` [Example 103, 6-(6-(6-(1-acryloylazetidine-3-carbonyl)-2,6-diazaspiro[3.4]octan-2-yl)pyridin-3-yl)-4-methoxypyrazolo[1,5-a]pyridine-3-carbonitrile], the “FGFR1 Enz kobs” value in assay [1] was 0.00388 min⁻¹. Also, the IC50 in assay [2] stood at 70 nM; in assay [3], 137 nM; in assay [4] it was 10 nM; in assay [5] it was 573 nM.

Regarding `C=CC(=O)N1CC(C(=O)N2CC3CC(C2)N3c2ccc(-c3cc(OC)c4c(C#N)cnn4c3)cn2)C1` [Example 105, 6-(6-(3-(1-acryloylazetidine-3-carbonyl)-3,6-diazabicyclo[3.1.1]heptan-6-yl)pyridin-3-yl)-4-methoxypyrazolo[1,5-a]pyridine-3-carbonitrile], in assay [1], the “FGFR1 Enz kobs” value worked out at 0.00042 min⁻¹. The IC50 came to 435 nM in assay [2], 2660 nM in assay [3], 42 nM in assay [4] and 3960 nM in assay [5].

For `COc1cc(-c2cnn(C3CCN(C(=O)C4CN(C(=O)/C=C/CN5CC[C@@H](F)C5)C4)CC3)c2)cn2ncc(C#N)c12` [Example 183, (R,E)-6-(1-(1-(1-(4-(3-fluoropyrrolidin-1-yl)but-2-enoyl)azetidine-3-carbonyl)piperidin-4-yl)-1H-pyrazol-4-yl)-4-methoxypyrazolo[1,5-a]pyridine-3-carbonitrile], the “FGFR1 Enz kobs” value in assay [1] came out at 0.00259 min⁻¹. Besides, the IC50 in assay [2] amounted to 46 nM; in assay [3] it was 592 nM; in assay [4], 4 nM; in assay [5], 4570 nM.

With `COc1cc(-c2c(C)nn(C3CCN(C(=O)C4(F)CN(C(=O)/C=C/CN(C)C)C4)CC3)c2C)cn2ncc(C#N)c12` [Example 161, (E)-6-(1-(1-(1-(4-(dimethylamino)but-2-enoyl)-3-fluoroazetidine-3-carbonyl)piperidin-4-yl)-3,5-dimethyl-1H-pyrazol-4-yl)-4-methoxypyrazolo [1,5-a]pyridine-3-carbonitrile], the “FGFR1 Enz kobs” value in assay [1] was 0.00744 min⁻¹. For the same molecule, the IC50 in assay [2] stood at 589 nM; in assay [3], 133 nM; in assay [4], 31 nM; in assay [5] it was 1620 nM.

As for `C=CC(=O)N1CC(C(=O)N2CCC(n3cc(-c4cc(OC)c5c(Cl)cnn5c4)cn3)CC2)C1` [Example 122, 1-(3-(4-(4-(3-chloro-4-methoxypyrazolo[1,5-a]pyridin-6-yl)-1H-pyrazol-1-yl)piperidine-1-carbonyl)azetidin-1-yl)prop-2-en-1-one], the “FGFR1 Enz kobs” value in assay [1] turned out to be 0.00127 min⁻¹. Moreover, the IC50 in assay [2] amounted to 120 nM; in assay [3] it was 52 nM; in assay [4], 12 nM; in assay [5] it was 492 nM.

Turning to `COc1cc(-c2cnn(C3CCN(C(=O)C4CN(C(=O)/C=C/CN(C)C)C4)CC3)c2C)cn2ncc(C#N)c12` [Example 152, (E)-6-(1-(1-(1-(4-(dimethylamino)but-2-enoyl)azetidine-3-carbonyl)piperidin-4-yl)-5-methyl-1H-pyrazol-4-yl)-4-methoxypyrazolo [1,5-a]pyridine-3-carbonitrile], the “FGFR1 Enz kobs” value in assay [1] was 0.00338 min⁻¹. The IC50 in assay [2] was 320 nM; in assay [3], 849 nM; in assay [4] it was 35 nM; in assay [5], no less than 5000 nM.

For `COc1cc(-c2cnn(C3CCN(C(=O)C4CN(C(=O)C#CCO)C4)CC3)c2)cn2ncc(C#N)c12` [Example 179, 6-(1-(1-(1-(4-hydroxybut-2-ynoyl)azetidine-3-carbonyl)piperidin-4-yl)-1H-pyrazol-4-yl)-4-methoxypyrazolo[1,5-a]pyridine-3-carbonitrile], the “FGFR1 Enz kobs” value in assay [1] is 0.01248 min⁻¹. Moreover, the IC50 in assay [2] was found to be 22 nM; in assay [3], 236 nM; in assay [4], 3 nM; in assay [5], 1600 nM.

On to `COc1cc(-c2cnn(C3CCN(C(=O)C4CN(C(=O)/C=C/CCl)C4)CC3)c2)cn2ncc(C#N)c12` [Example 181, (E)-6-(1-(1-(1-(4-chlorobut-2-enoyl)azetidine-3-carbonyl)piperidin-4-yl)-1H-pyrazol-4-yl)-4-methoxypyrazolo[1,5-a]pyridine-3-carbonitrile], for which the “FGFR1 Enz kobs” value in assay [1] was 0.00249 min⁻¹. Further, the IC50 worked out at 32 nM in assay [2], 34 nM in assay [3], 2 nM in assay [4] and 196 nM in assay [5].

As to `COc1cc(-c2nn(C3CCN(C(=O)C4(F)CN(C(=O)/C=C/CN(C)C)C4)CC3)nc2C)cn2ncc(C#N)c12` [Example 163, (E)-6-(2-(1-(1-(4-(dimethylamino)but-2-enoyl)-3-fluoroazetidine-3-carbonyl)piperidin-4-yl)-5-methyl-2H-1,2,3-triazol-4-yl)-4-methoxypyrazolo [1,5-a]pyridine-3-carbonitrile], the “FGFR1 Enz kobs” value in assay [1] came out at 0.00486 min⁻¹. Moreover, the IC50 in assay [2] was 1140 nM; in assay [3], 207 nM; in assay [4], 1170 nM; in assay [5], 1650 nM.

Consider `C=CC(=O)N1CC(C(=O)N2CCN(c3ccc(-c4cc(OC)c5c(C#N)cnn5c4)nn3)CC2)C1` [Example 115, 6-(6-(4-(1-acryloylazetidine-3-carbonyl)piperazin-1-yl)pyridazin-3-yl)-4-methoxypyrazolo[1,5-a]pyridine-3-carbonitrile], for which, in assay [1], the “FGFR1 Enz kobs” value was found to be 0.0016 min⁻¹. For the same molecule, the IC50 in assay [2] was 90 nM; in assay [3] it was 1240 nM; in assay [4], 25 nM; in assay [5] it was no less than 5000 nM.

As for `C=CC(=O)N1CC(OC)(C(=O)N2CCC(n3nc(C)c(-c4cc(OC)c5c(C#N)cnn5c4)c3C)CC2)C1` [Example 95, 6-(1-(1-(1-acryloyl-3-methoxyazetidine-3-carbonyl)piperidin-4-yl)-3,5-dimethyl-1H-pyrazol-4-yl)-4-methoxypyrazolo[1,5-a]pyridine-3-carbonitrile], the “FGFR1 Enz kobs” value in assay [1] turned out to be 0.00409 min⁻¹. Besides, the IC50 was 675 nM in assay [2], 98 nM in assay [3], 324 nM in assay [4] and 1070 nM in assay [5].

Turning to `C=CC(=O)N1CC(F)(C(=O)N2CCN(c3cc(C)c(-c4cc(OC)c5c(C#N)cnn5c4)cn3)CC2)C1` [Example 114, 6-(6-(4-(1-acryloyl-3-fluoroazetidine-3-carbonyl)piperazin-1-yl)-4-methylpyridin-3-yl)-4-methoxypyrazolo[1,5-a]pyridine-3-carbonitrile], in assay [1], the “FGFR1 Enz kobs” value is 0.00369 min⁻¹. Also, the IC50 in assay [2] is 850 nM; in assay [3] it was 248 nM; in assay [4], 150 nM; in assay [5], 1310 nM.

As for `C=CC(=O)N1CC(C(=O)N2CCN(c3ccc(-c4cc(OC)c5c(C#N)cnn5c4)cc3)CC2)C1` [Example 100, 6-(4-(4-(1-acryloylazetidine-3-carbonyl)piperazin-1-yl)phenyl)-4-methoxypyrazolo[1,5-a]pyridine-3-carbonitrile], the “FGFR1 Enz kobs” value in assay [1] was 0.0025 min⁻¹. Further, the IC50 in assay [2] turned out to be 57 nM; in assay [3], 21 nM; in assay [4] it was 5 nM; in assay [5], 180 nM.

Take `C=CC(=O)N1CCN(C(=O)N2CCC(n3cc(-c4cc(OC)c5c(C#N)cnn5c4)cn3)CC2)C[C@@H]1CC#N` [Example 135, (S)-6-(1-(1-(4-acryloyl-3-(cyanomethyl)piperazine-1-carbonyl)piperidin-4-yl)-1H-pyrazol-4-yl)-4-methoxypyrazolo[1,5-a]pyridine-3-carbonitrile]: the “FGFR1 Enz kobs” value in assay [1] was 0.0029 min⁻¹. For the same molecule, the IC50 in assay [2] stood at 35 nM; in assay [3], 40 nM; in assay [4] it was 4 nM; in assay [5], 342 nM.
